Test results published in the CheMixHub viscosity set.

Experiment: xn = mol fraction of the nth substance listed

CC#N + CO
Settings	viscosity [mPa·s]
303.15 K, 101 kPa, x1 = 0.4849	0.317
303.15 K, 101 kPa, x1 = 0.5981	0.308
303.15 K, 101 kPa, x1 = 0.6986	0.302
303.15 K, 101 kPa, x1 = 0.8078	0.299
303.15 K, 101 kPa, x1 = 0.8746	0.514
303.15 K, 101 kPa, x1 = 0.9013	0.304
308 K, 100 kPa, x1 = 0.0991	0.4521
308 K, 100 kPa, x1 = 0.2043	0.4145
308 K, 100 kPa, x1 = 0.316	0.3945
308 K, 100 kPa, x1 = 0.4039	0.3815
308 K, 100 kPa, x1 = 0.5003	0.3712
308 K, 100 kPa, x1 = 0.6063	0.3621
308 K, 100 kPa, x1 = 0.7402	0.3502
308 K, 100 kPa, x1 = 0.8688	0.3423
308.15 K, 101 kPa, x1 = 0.0892	0.376
308.15 K, 101 kPa, x1 = 0.1871	0.346
308.15 K, 101 kPa, x1 = 0.2884	0.321
308.15 K, 101 kPa, x1 = 0.4054	0.298
308.15 K, 101 kPa, x1 = 0.4849	0.291
308.15 K, 101 kPa, x1 = 0.5981	0.282
308.15 K, 101 kPa, x1 = 0.6986	0.278
308.15 K, 101 kPa, x1 = 0.8078	0.276
308.15 K, 101 kPa, x1 = 0.9013	0.28
308.15 K, 101.33 kPa, x1 = 0.0495	0.451
308.15 K, 101.33 kPa, x1 = 0.0999	0.436
308.15 K, 101.33 kPa, x1 = 0.1494	0.412
308.15 K, 101.33 kPa, x1 = 0.1995	0.395
308.15 K, 101.33 kPa, x1 = 0.245	0.38
308.15 K, 101.33 kPa, x1 = 0.2998	0.364
308.15 K, 101.33 kPa, x1 = 0.3451	0.352
308.15 K, 101.33 kPa, x1 = 0.3997	0.341
308.15 K, 101.33 kPa, x1 = 0.4489	0.333
308.15 K, 101.33 kPa, x1 = 0.495	0.326
308.15 K, 101.33 kPa, x1 = 0.5496	0.32
308.15 K, 101.33 kPa, x1 = 0.5999	0.314
308.15 K, 101.33 kPa, x1 = 0.6494	0.31
308.15 K, 101.33 kPa, x1 = 0.6997	0.307
308.15 K, 101.33 kPa, x1 = 0.745	0.305
308.15 K, 101.33 kPa, x1 = 0.7995	0.305
308.15 K, 101.33 kPa, x1 = 0.8496	0.306
308.15 K, 101.33 kPa, x1 = 0.8998	0.307
308.15 K, 101.33 kPa, x1 = 0.95	0.309
313 K, 100 kPa, x1 = 0.0991	0.4125
313 K, 100 kPa, x1 = 0.2043	0.3956
313 K, 100 kPa, x1 = 0.316	0.3838
313 K, 100 kPa, x1 = 0.4039	0.3736
313 K, 100 kPa, x1 = 0.5003	0.3612
313 K, 100 kPa, x1 = 0.6063	0.3512
313 K, 100 kPa, x1 = 0.7402	0.3375
313 K, 100 kPa, x1 = 0.8688	0.3215
318.15 K, 101.33 kPa, x1 = 0.0495	0.403
318.15 K, 101.33 kPa, x1 = 0.0999	0.39
318.15 K, 101.33 kPa, x1 = 0.1494	0.376
318.15 K, 101.33 kPa, x1 = 0.1995	0.361
318.15 K, 101.33 kPa, x1 = 0.245	0.347
318.15 K, 101.33 kPa, x1 = 0.2998	0.333
318.15 K, 101.33 kPa, x1 = 0.3451	0.323
318.15 K, 101.33 kPa, x1 = 0.3997	0.313
318.15 K, 101.33 kPa, x1 = 0.4489	0.306
318.15 K, 101.33 kPa, x1 = 0.495	0.3
